Source: PMC4703387, “Identification of the Calmodulin-Binding Domains of Fas Death Receptor” (PLoS ONE, 2016)
Where no end group is shown, it is not given here.

Columns and labels:
Assay type in all cases: binding
Ca^2+/CaM [1] = molecular target: T1, Ca^2+/CaM (Homo sapiens, UniProt P0DP23); assay: Isothermal titration calorimetry (ITC), Ca^2+/CaM titrated into peptide
T1 construct: made in house
Procedure: Thermodynamic parameters of Ca^2+/CaM binding to Fas-Pep1 and Fas-Pep2 peptides were determined using an Auto-iTC200 microcalorimeter (Malvern Instruments). […] Heat of reaction of Ca^2+/CaM was measured over 19 injections at 25°C for Fas-Pep1 or 35°C for Fas-Pep2. Heat of dilution was measured by titrating Ca^2+/CaM into buffer. Data analysis was performed using the Microcal Origin package (ver. 8.1). Baseline corrections were performed by subtracting heat of dilution from the raw Ca^2+/CaM-peptide titration data. Binding curves were analyzed and dissociation constants (Kd) were determined by nonlinear least-square fitting of the baseline-corrected data. The formula used to fit the data as one binding site is: ΔQ(i)=Q(i)+(dVi/Vo)[(Q(i)+Q(i−1))/2]–Q(i–1) where ΔQ(i) is the heat released at i^th injection, Q(i) is the total heat content of the solution, dVi is injection volume, and Vo is total volume. Three replicate titration experiments were typically performed for each peptide.
Although it is recognized that the most frequent mechanism of CaM binding to target proteins involves the hydrophobic surfaces on the N- and C-terminal lobes,[23] electrostatic interactions also contribute to the formation and stabilization of CaM-protein complexes since CaM is acidic and CaM-binding motifs are often basic.[44, 45] The thermodynamic parameters of binding and the relative contribution of hydrophobic vs. electrostatic factors are often assessed by ITC methods, yielding various parameters such as dissociation constant (Kd), stoichiometry (n), enthalpy change (ΔH°) and entropy change (ΔS°). The thermodynamic parameters of Ca^2+/CaM binding to Fas-Pep1 and Fas-Pep2 were assessed by ITC.

Ca^2+/CaM [2] = molecular target: T1, Ca^2+/CaM; assay: NMR titration (2D 1H-15N HSQC) of 15N-labeled Ca^2+/CaM with FasDD peptides; details: 1H-15N HSQC, 15N-Ca^2+/CaM 100–150 μM, 35°C, pH 7.0
Procedure: (§1) NMR data were collected at 35°C on a Bruker Avance II (700 MHz ^1H) spectrometer equipped with a cryogenic triple-resonance probe, processed with NMRPIPE [35] and analyzed with NMRVIEW [36] or CCPN Analysis. […] For signal assignments of the complexes, ^13C-, ^15N-, or ^13C-/^15N-labeled Ca^2+/CaM at ~400–500 μM was mixed with unlabeled Fas-Pep1 (in 100% DMSO-d6) or Fas-Pep2 at 1.5:1 peptide:Ca^2+/CaM. […] The backbone atom resonances of Ca^2+/CaM complexes with Fas-Pep1 and Fas-Pep2 were assigned using HNCA, HN(CO)CA, HNCACB, HNCO, HN(CO)CACB and ^15N-edited NOESY-HSQC and TOCSY-HSQC experiments. These experiments have been also collected on ^15N-, or ^13C-/^15N-labeled Fas-Pep2 in complex with unlabeled Ca^2+/CaM to confirm the α-helical character of Fas-Pep2 when bound to Ca^2+/CaM. The chemical shifts of Ca^2+/CaM-bound Fas-Pep2 were used to predict its order parameters and secondary structure content in TALOS+.[38] Combined ^1H-^15N chemical shift changes were calculated as ΔδHN = [(ΔδH)^2+(ΔδN/5)^2]^1/2, where ΔδH and ΔδN are the ^1H and ^15N chemical shift changes, respectively. Kd values were calculated by non-linear least-square fitting algorithm in Origin software (OriginLab, Northampton, MA) using the equation: ΔδHN=ΔδHN^max((Kd+L0+P0)−((Kd+L0+P0)^2−4*P0*L0)^0.5)/(2*P0) where ΔδHN^max is the chemical shift change between complex and free protein, L0 total concentration of ligand, and P0 total concentration of protein.
To gain insights into the molecular elements of Ca^2+/CaM–FasDD interaction and to identify the interaction interface, we have utilized NMR chemical shift perturbation (CSP) as detected in ^1H-^15N heteronuclear single quantum coherence (HSQC) spectra. These experiments not only allow for identification of residues involved in binding but can also provide information on the induced conformational changes within proteins. 2D ^1H-^15N HSQC data obtained for a uniformly ^15N-labeled Ca^2+/CaM upon titration with unlabeled Fas-Pep1 are shown in Fig 5. Addition of substoichiometric amounts of Fas-Pep1 (0.5:1 peptide:Ca^2+/CaM) led to a decrease in intensity for a significant number of ^1H-^15N resonances accompanied by appearance of several new signals, consistent with a slow exchange on the NMR scale between the free and bound forms of Ca^2+/CaM. A steady decrease in intensity for the original ^1H-^15N signals and increase in intensity of the new signals was clearly observed with further addition of Fas-Pep1. Spectral changes ceased upon completion of peptide titration at 1.5:1 Fas-Pep1:Ca^2+/CaM ratio when only the new set of signals was present (Fig 5). […]
Only residues 214–227 have been detected in the x-ray structure of Ca^2+/CaM bound to FasDD(214–238); no electron density has been detected for residues 228–238.[40] […]

Ca^2+/CaM-C = molecular target: T2, Ca^2+/CaM-C (Homo sapiens, UniProt P0DP23); assay: NMR titration (2D 1H-15N HSQC) of isolated C-terminal lobe; details: 1H-15N HSQC titration
T2 construct: ^15N-labled samples of the isolated Ca^2+/CaM-N and Ca^2+/CaM-C domains; made in house
Procedure: as §1, with “The chemical shifts of Ca^2+/CaM-bound Fas-Pep2 were used to predict its order parameters and secondary structure content in TALOS+.[38]” left out, “protein. […]” for “protein.”

[3] = as Kd (ITC), 25°C Fas-Pep1, 35°C Fas-Pep2

- thermodynamic driving force of binding (Ca^2+/CaM [1]; ITC): enthalpically driven
- n (stoichiometry, ITC) (Ca^2+/CaM [1]; as Kd (ITC)): 0.9
- ΔH° (Ca^2+/CaM [1]; [3]): -14.2 kcal/mol
- ΔS° (Ca^2+/CaM [1]; [3]): -18.8 cal/mol/K
- NMR exchange regime with Ca^2+/CaM (Ca^2+/CaM [2]): slow exchange
- CSPs on Ca^2+/CaM-C (Ca^2+/CaM-C): significant CSPs for numerous residues
Sequence: VQDTAEQKVQLLRNWHQLHGKKEAYDTLIKDLKKANLC [Fas-Pep2]
